Results as given in patent US11878975B2, “Substituted indole compounds useful as TLR inhibitors” (BRISTOL-MYERS SQUIBB COMPANY, priority 2017, dated 2024).

How the values were obtained:
Format in all cases: cell-based
[1] = target: T1, human TLR8 (Homo sapiens, UniProt Q9NR97); assay: TLR8 inhibition reporter assay (HEK-Blue cells, SEAP reporter, R848 stimulation); details: HEK-Blue cells overexpressing human TLR8, SEAP reporter, R848 15.9 μM
T1 construct: host or cells: HEK-Blue cells
T1 sequence (Q9NR97 27-1041): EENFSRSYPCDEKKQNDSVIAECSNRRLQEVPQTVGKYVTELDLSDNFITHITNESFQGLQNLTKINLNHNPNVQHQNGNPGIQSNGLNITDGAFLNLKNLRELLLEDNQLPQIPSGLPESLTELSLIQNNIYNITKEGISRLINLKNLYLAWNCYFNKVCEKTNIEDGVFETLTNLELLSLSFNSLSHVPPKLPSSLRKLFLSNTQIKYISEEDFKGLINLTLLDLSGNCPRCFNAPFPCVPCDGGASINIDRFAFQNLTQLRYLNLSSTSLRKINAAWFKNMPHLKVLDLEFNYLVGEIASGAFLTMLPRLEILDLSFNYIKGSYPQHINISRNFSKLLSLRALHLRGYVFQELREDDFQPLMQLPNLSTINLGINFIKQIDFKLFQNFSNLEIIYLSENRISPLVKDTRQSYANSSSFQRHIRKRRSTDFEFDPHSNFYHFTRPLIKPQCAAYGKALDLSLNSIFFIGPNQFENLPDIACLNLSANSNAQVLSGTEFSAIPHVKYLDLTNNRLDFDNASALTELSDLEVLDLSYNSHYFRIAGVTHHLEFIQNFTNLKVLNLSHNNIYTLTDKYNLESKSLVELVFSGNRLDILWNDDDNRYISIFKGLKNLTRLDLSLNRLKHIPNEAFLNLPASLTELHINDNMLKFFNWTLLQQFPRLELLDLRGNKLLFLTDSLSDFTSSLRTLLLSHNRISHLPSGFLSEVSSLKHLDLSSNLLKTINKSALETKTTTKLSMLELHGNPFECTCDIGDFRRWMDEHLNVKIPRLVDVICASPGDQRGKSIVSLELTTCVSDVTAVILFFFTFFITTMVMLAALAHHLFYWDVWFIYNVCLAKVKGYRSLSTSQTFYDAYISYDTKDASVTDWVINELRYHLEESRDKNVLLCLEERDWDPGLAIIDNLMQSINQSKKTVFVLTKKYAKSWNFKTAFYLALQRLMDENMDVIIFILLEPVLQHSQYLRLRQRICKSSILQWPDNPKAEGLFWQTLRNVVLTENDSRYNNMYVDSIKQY
How it was run: (§1)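 Dose range 0.05 nM–50 μM; 30 min preincubation, RT. Agonists: TLR7 gardiquimod 7.5 μM, TLR8 R848 15.9 μM, TLR9 ODN2006 5 nM. 22 h, 37 °C, 5% CO2. SEAP (IFN-β minimal promoter with NF-κB/AP-1 sites) via colorimetric detection medium; % inhibition vs agonist+DMSO and reference-inhibitor wells.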

[2] = target: T2, human TLR9 (Homo sapiens, UniProt Q9NR96); assay: TLR9 inhibition reporter assay (HEK-Blue cells, SEAP reporter, ODN2006 stimulation); details: HEK-Blue cells overexpressing human TLR9, SEAP reporter, ODN2006 5 nM
T2 construct: host or cells: HEK-Blue cells
T2 sequence (Q9NR96 26-1032): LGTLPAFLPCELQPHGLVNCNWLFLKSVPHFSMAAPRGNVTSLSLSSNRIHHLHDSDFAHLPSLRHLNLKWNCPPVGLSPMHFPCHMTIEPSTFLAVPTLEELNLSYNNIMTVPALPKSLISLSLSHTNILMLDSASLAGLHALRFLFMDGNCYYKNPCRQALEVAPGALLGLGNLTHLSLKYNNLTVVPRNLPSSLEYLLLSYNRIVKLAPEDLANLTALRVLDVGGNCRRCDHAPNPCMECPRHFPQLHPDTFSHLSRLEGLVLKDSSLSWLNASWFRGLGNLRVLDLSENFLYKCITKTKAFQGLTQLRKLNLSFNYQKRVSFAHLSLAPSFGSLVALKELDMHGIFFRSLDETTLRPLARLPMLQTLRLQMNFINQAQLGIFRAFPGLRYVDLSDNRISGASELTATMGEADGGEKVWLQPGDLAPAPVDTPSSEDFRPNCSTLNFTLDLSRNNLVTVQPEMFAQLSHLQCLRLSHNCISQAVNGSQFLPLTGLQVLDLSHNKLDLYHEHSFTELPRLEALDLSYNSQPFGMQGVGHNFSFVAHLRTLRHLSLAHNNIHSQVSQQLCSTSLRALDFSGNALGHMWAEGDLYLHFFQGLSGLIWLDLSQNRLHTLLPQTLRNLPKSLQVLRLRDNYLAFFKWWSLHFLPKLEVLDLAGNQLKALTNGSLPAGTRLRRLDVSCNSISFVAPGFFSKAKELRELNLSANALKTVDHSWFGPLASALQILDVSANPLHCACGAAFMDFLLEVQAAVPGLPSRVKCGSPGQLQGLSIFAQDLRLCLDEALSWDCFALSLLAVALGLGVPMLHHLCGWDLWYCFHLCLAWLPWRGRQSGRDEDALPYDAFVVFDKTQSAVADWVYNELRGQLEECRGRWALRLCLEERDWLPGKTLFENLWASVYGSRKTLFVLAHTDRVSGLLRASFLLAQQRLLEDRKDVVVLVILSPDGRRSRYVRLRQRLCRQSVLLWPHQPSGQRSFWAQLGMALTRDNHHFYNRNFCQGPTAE
How it was run: as §1

[3] = target: T3, human TLR7 (Homo sapiens, UniProt Q9NYK1); assay: TLR7 inhibition reporter assay (HEK-Blue cells, SEAP reporter, gardiquimod stimulation); details: HEK-Blue cells overexpressing human TLR7, SEAP reporter, gardiquimod 7.5 μM
T3 construct: host or cells: HEK-Blue cells
T3 sequence (Q9NYK1 27-1049): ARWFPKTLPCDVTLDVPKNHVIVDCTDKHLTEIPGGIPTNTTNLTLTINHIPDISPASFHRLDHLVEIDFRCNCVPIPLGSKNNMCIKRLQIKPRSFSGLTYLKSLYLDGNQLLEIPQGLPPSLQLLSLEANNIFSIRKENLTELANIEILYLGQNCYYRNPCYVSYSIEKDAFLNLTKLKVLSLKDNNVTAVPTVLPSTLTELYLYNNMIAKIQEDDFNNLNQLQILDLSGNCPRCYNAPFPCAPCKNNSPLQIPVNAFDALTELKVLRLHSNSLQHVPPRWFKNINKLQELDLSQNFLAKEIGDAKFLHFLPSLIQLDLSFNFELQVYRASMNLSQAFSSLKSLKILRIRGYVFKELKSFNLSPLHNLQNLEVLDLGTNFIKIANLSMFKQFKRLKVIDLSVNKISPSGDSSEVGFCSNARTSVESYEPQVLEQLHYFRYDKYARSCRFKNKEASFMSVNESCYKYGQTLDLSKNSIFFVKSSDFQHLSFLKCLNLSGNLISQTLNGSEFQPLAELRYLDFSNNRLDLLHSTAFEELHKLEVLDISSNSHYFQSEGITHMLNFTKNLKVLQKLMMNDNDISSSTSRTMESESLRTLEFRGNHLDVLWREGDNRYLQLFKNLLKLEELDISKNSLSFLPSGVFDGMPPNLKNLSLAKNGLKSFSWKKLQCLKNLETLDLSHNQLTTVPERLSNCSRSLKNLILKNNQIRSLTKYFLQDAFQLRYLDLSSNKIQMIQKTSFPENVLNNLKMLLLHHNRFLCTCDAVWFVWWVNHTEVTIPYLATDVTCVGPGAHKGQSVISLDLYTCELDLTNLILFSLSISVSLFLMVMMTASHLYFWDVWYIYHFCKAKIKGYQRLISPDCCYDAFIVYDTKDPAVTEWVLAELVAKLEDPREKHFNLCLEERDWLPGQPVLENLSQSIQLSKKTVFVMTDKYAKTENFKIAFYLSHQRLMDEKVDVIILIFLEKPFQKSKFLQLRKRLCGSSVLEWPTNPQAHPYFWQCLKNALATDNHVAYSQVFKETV
How it was run: as §1

Cc1cc(-c2[nH]c3ccc(C4CCC(N)CC4)cc3c2C(C)C)cc(C)n1 (stereo not drawn) [Example 5]
IC50 [1]: 14 nM | IC50 [2]: 597 nM | IC50 [3]: 1 nM

Cc1c(-c2[nH]c3ccc(C4CCC(NC5CC5)CC4)cc3c2C(C)C)cn2ncnc2c1C (stereo not drawn) [Example 17]
IC50 [1]: 0.7 nM | IC50 [2]: 3530 nM | IC50 [3]: 0.73 nM

Cc1c(-c2[nH]c3ccc(C4CN(CC(=O)N(C)C)C4)cc3c2C(C)C)cn2cnnc2c1C [Example 539]
IC50 [1]: 132 nM | IC50 [2]: 1890 nM | IC50 [3]: 64 nM

COc1cc(-c2[nH]c3ccc(C4CCC(N(C)C(C)C)CC4)cc3c2C(C)C)cn2ncnc12 (single isomer, unassigned) [Example 7, N-isopropyl-4-(3-isopropyl-2-(8-methoxy-[1,2,4]triazolo[1,5-a]pyridin-6-yl)-1H-indol-5-yl)-N-methylcyclohexanamine]
IC50 [1]: 4.4 nM | IC50 [2]: 2000 nM | IC50 [3]: 1 nM

COc1cc(-c2[nH]c3ccc(C4CN(C)CCO4)cc3c2C(C)C)cn2ncnc12 (stereo not drawn) [Example 301]
IC50 [1]: 0.56 nM | IC50 [2]: 6140 nM | IC50 [3]: 7 nM

COc1cc(-c2[nH]c3ccc(C4CCC(N(C)CCC(F)(F)F)CC4)cc3c2C(C)C)cn2ncnc12 (stereo not drawn) [Example 82]
IC50 [1]: 23 nM | IC50 [2]: 5770 nM | IC50 [3]: 7 nM

Cc1c(-c2[nH]c3ccc(C4CN(CC(=O)N(C)C)CCO4)cc3c2C(C)C)cn2ncnc2c1C (stereo not drawn) [Example 312]
IC50 [1]: 21 nM | IC50 [2]: > 50000 nM | IC50 [3]: 46 nM

COc1cc(-c2[nH]c3ccc(C4CCCN(C5COC5)C4)cc3c2C(C)C)cn2ncnc12 (stereo not drawn) [Example 240]
IC50 [1]: 4.2 nM | IC50 [2]: 11600 nM | IC50 [3]: 5 nM

COc1cc(-c2[nH]c3ccc(C4CCC(C)(NC(=O)CN(C)C)CC4)cc3c2C(C)C)cn2ncnc12 (stereo not drawn) [Example 154, 2-(dimethylamino)-N-(4-(3-isopropyl-2-(8-methoxy-[1,2,4]triazolo[1,5-a]pyridin-6-yl)-1H-indol-5-yl)-1-methylcyclohexyl)acetamide]
IC50 [1]: 12 nM | IC50 [2]: 5680 nM | IC50 [3]: 4 nM

Cc1cc(-c2[nH]c3ccc(C4CN(CC(=O)N(C)C)C4)cc3c2C(C)C)cn2ncnc12 [Example 261]
IC50 [1]: 11 nM | IC50 [2]: 3320 nM | IC50 [3]: 4 nM

Cc1c(-c2[nH]c3ccc(C4CCC(N(C)C)CC4)cc3c2C(C)C)cn2cnnc2c1C (stereo not drawn) [Example 529]
IC50 [1]: 39 nM | IC50 [2]: 9130 nM | IC50 [3]: 12 nM

Cc1cc(-c2[nH]c3ccc(C4CCC(O)CC4)cc3c2C(C)C)cc(C)n1 (single isomer, unassigned) [Example 172, 4-(2-(2,6-dimethylpyridin-4-yl)-3-isopropyl-1H-indol-5-yl)cyclohexanol]
IC50 [1]: 35 nM | IC50 [2]: 15800 nM | IC50 [3]: 8 nM

Cc1cc(-c2[nH]c3ccc(C4CCC(N5CCCC(F)(F)C5)CC4)cc3c2C(C)C)cn(C)c1=O (stereo not drawn) [Example 467]
IC50 [1]: 33 nM | IC50 [2]: 47000 nM | IC50 [3]: 48 nM

CC(C)c1c(-c2ccnc3[nH]ncc23)[nH]c2ccc(CN3CCN(C)CC3)cc12 [Example 442]
IC50 [1]: 4.6 nM | IC50 [2]: 7600 nM | IC50 [3]: 26 nM

Cc1cc(-c2[nH]c3ccc(C4CN(CC(=O)N(C)C)CCO4)cc3c2C(C)C)cc(C)n1 (stereo not drawn) [Example 322]
IC50 [1]: 86 nM | IC50 [2]: 20300 nM | IC50 [3]: 69 nM

CNC1CCC(c2ccc3[nH]c(-c4cc(C)nc(C)c4)c(C(C)C)c3c2)CC1 (single isomer, unassigned) [Example 52]
IC50 [1]: 1.8 nM | IC50 [2]: 331 nM | IC50 [3]: 0.42 nM

CNCC(=O)N1CCCC(c2ccc3[nH]c(-c4cc(OC)c5ncnn5c4)c(C(C)C)c3c2)C1 (stereo not drawn) [Example 212]
IC50 [1]: 13 nM | IC50 [2]: 8470 nM | IC50 [3]: 3 nM

COc1cc(-c2[nH]c3ccc(C4CC5CNCC5C4)cc3c2C(C)C)cn2ncnc12 (stereo not drawn) [Example 508]
IC50 [1]: 11 nM | IC50 [2]: 1490 nM | IC50 [3]: 0.43 nM

Cc1c(-c2[nH]c3ccc(C4CN(C(C)C)C4)cc3c2C(C)C)cn2cnnc2c1C [Example 534]
IC50 [1]: 28 nM | IC50 [2]: 7170 nM | IC50 [3]: 9 nM

COc1cc(-c2[nH]c3ccc(C4CN(C(C)C)CCO4)cc3c2C(C)C)cn2ncnc12 (stereo not drawn) [Example 300]
IC50 [1]: 6.4 nM | IC50 [2]: 2500 nM | IC50 [3]: 2 nM

CC(C)c1c(-c2ccnc3[nH]ncc23)[nH]c2ccc(CCC3CCNCC3)cc12 [Example 421]
IC50 [1]: 4 nM | IC50 [2]: 1100 nM | IC50 [3]: 14 nM

Cc1c(-c2[nH]c3ccc(C4CCCNC4)cc3c2C(C)C)ccc2ncnn12 (stereo not drawn) [Example 188]
IC50 [1]: 66 nM | IC50 [2]: 7050 nM | IC50 [3]: 161 nM

Cc1cc(-c2[nH]c3ccc(C4CCC(NC5(C)COC5)CC4)cc3c2C(C)C)cn2ncnc12 (single isomer, unassigned) [Example 47]
IC50 [1]: 7.5 nM | IC50 [2]: 4650 nM | IC50 [3]: 2 nM

COc1cc(-c2[nH]c3ccc(C4CC5CN(C6COC6)CC5C4)cc3c2C(C)C)cn2ncnc12 (stereo not drawn) [Example 513]
IC50 [1]: 20 nM | IC50 [2]: 12500 nM | IC50 [3]: 0.96 nM
